# Measurements from patent publication US9233095B2, “Small molecule RNase inhibitors and methods of use” (University of Rochester, priority 2011, dated 2016).
# Assays:
# [1] = tested on: S. aureus (MRSA); assay: CLSI broth microdilution MIC; format: cell-based; conditions: Staphylococcus aureus
# Source text: (§1) In some examples, compounds can be further assayed using the Mueller Hinton (MH) broth antibacterial assay as specified by the Clinical and Laboratory Standards Institute MIC broth microdilution protocol (see Methods for Dilution Antimicrobial Susceptibility Tests for Bacteria That Grow Aerobically; Approved Standard, In The Clinical and Laboratory Standards Institute (CLSI, formerly NCCLS), 7th ed., January 2006, 26 (2), M7-A7; see also Performance Standards for Antimicrobial Susceptibility Testing; Eighteenth Informational Supplement, In The Clinical and Laboratory Standards Institute (CLSI, formerly NCCLS), January 2008, 28 (1), M100-S18).
# (§2) With the exception of RN4220-derivatives, in vitro activities of RNPA1000 against bacteria were determined by the broth microdilution method according to the Clinical and Laboratory Standards Institute (CLSI) guidelines using cation adjusted Mueller-Hinton broth or MH broth supplemented with 5% lysed horse blood (for testing Streptotococcus spp.). Microtiter plates containing serial dilutions of RNPA1000 (0, 4, 8, 16, 32, 64, and 128 μg/ml) were inoculated with 10^5 colony forming units (CFU)/ml and incubated for 18 hr at 37° C. […] The MIC value for each S. aureus strain was determined to be the median score of replicate measurements (n=5). Wells containing concentrations of RNPA1000≧MIC were plated for minimal bactericidal measurement. Where possible, experiments with VRSA strains were performed in a laminar flow hood to minimize potential for equipment contamination. For RN4220 cells containing plasmid vector (pCN51), RnpA overproducing plasmid (pRNPA-S) or RnpA underproducing plasmid (pRNPA-A.S.) in vitro antimicrobial activity of RNPA1000 was performed by the microdilution method as described above, except that cells were grown in Tryptic Soy Broth medium supplemented with 2.5 μM CdCl2 and 0, 1, 2, 4, 8, 16, 32, 64, or 128 μg/ml RNPA1000. Time-kill assays were also performed to monitor the antimicrobial properties of RNPA1000 for S. aureus strain UAMS-1 in the absence and presence of 0.25, 0.5, 2, and 4 times the strain's MIC for oxacillin (1 μg/ml), rifampicin (0.5 μg/ml), vancomycin (2 μg/ml), or daptomycin (1 μg/ml). The indicated amount of RNPA1000 and/or commercial antibiotic were added to mid-exponential phase (2×10^8 cfu/ml) S. aureus strain UAMS-1 cells and incubated at 37° C. Aliquots were removed at 0, 2, 4, 8, and 24 hr post-antimicrobial challenge, serial diluted, and plated to enumerate resulting cfu/ml. All time-kill assays were repeated at least 3 times.
# [2] = tested on: S. aureus (VRSA); assay: CLSI broth microdilution MIC; format: cell-based; conditions: Staphylococcus aureus
# Source text: as §1, §2
# [3] = tested on: S. pyogenes; assay: CLSI broth microdilution MIC; format: cell-based; conditions: Streptococcus pyogenes; S. pyogenes Isolate 1
# Source text: as §1, §2
# [4] = tested on: S. pneumoniae (MDR); assay: CLSI broth microdilution MIC; format: cell-based; conditions: Streptococcus pneumoniae
# Source text: as §1, §2
# [5] = tested on: B. cereus; assay: CLSI broth microdilution MIC; format: cell-based; conditions: Bacillus cereus; B. cereus Isolate 1
# Source text: as §1, §2
# [6] = tested on: S. aureus (VISA); assay: CLSI broth microdilution MIC; format: cell-based; conditions: Staphylococcus aureus
# Source text: as §1, §2
# [7] = tested on: S. sanguis; assay: CLSI broth microdilution MIC; format: cell-based; conditions: S. sanguis Isolate 1
# Source text: as §1, §2
# [8] = tested on: S. pneumoniae; assay: CLSI broth microdilution MIC; format: cell-based; conditions: Streptococcus pneumoniae
# Source text: as §1, §2
# [9] = tested on: S. bovis; assay: CLSI broth microdilution MIC; format: cell-based; conditions: Salmonella enterica; S. bovis ATCC49147
# Source text: as §1, §2
# [10] = tested on: S. aureus strain Smith; assay: acute lethal model of infection; format: in vivo, CD-1 mice; conditions: RNPA1000 128 mg/kg s.c., over the course of study
smiles,measurement,setting,value
Cc1cc(/C=C(/C#N)C(=O)Nc2cccc(Br)c2)c(C)n1-c1ccc(C(=O)O)cc1 [RNPA1000],MIC,"[1]; MRSA / USA100, strain USA100",26 µg/mL
same,MIC,"[1]; MRSA / USA200, strain USA200",32 µg/mL
same,MIC,"[1]; MRSA / USA300, strain USA300 (USA300-0114)",23 µg/mL
same,MIC,"[1]; MRSA / USA400, strain USA400",23 µg/mL
same,MIC,"[1]; MRSA / USA500, strain USA500",23 µg/mL
same,MIC,"[1]; MRSA / USA600, strain USA600",32 µg/mL
same,MIC,"[1]; MRSA / USA700, strain USA700",32 µg/mL
same,MIC,"[1]; MRSA / USA800, strain USA800",23 µg/mL
same,MIC,"[1]; MRSA, strain USA900",32 µg/mL
same,MIC,"[1]; MRSA, strain USA1000",29 µg/mL
same,MIC,"[1]; MRSA, strain USA1100",32 µg/mL
same,MIC,[2]; strain VRSA-VRS1,16 µg/mL
same,MIC,[2]; strain VRSA-VRS10,32 µg/mL
same,MIC,[3],8 µg/mL
same,MIC,[4]; S. pneumoniae (MDR) Isolate 1,32 µg/mL
same,MIC,[4]; S. pneumoniae (MDR) Isolate 2,32 µg/mL
same,MIC,[4]; S. pneumoniae (MDR) Isolate 3,16 µg/mL
same,MIC,[4]; S. pneumoniae (MDR) Isolate 4,32 µg/mL
same,MIC,[4]; S. pneumoniae (MDR) Isolate 5,16 µg/mL
same,MIC,[5],8 µg/mL
same,MIC,"[6]; NRS 1 / VISA, strain VISA-NRS1",32 µg/mL
same,MIC,"[6]; NRS 3 / VISA, strain VISA-NRS3",16 µg/mL
same,MIC,[6]; VISA Isolate 3,16 µg/mL
same,MIC,[6]; VISA Isolate 4,32 µg/mL
same,MIC,[6]; VISA Isolate 5,16 µg/mL
same,MIC,[7],16 µg/mL
same,MIC,[8]; S. pneumoniae Isolate 1,16 µg/mL
same,MIC,[8]; S. pneumoniae Isolate 2,16 µg/mL
same,MIC,[8]; S. pneumoniae Isolate 3,16 µg/mL
same,MIC,[8]; S. pneumoniae Isolate 4,32 µg/mL
same,MIC,[8]; S. pneumoniae Isolate 5,16 µg/mL
same,MIC,[9],32 µg/mL
same,survival,[10],30%
